Measurements: patent US20260007639A1, “COMPOUNDS FOR THE TREATMENT OF NEUROMUSCULAR DISORDERS” (NMD PHARMA A/S, priority 2017, published 2026)

Experiments:
[1] = test system: rat soleus muscles; assay: Recovery of force in isolated rat soleus nerve-muscle preparations after 115 nM tubocurarine, 50 μM compound (Table 8); details: 40 mins exposure
Protocol: Force traces from a representative muscle stimulated to contract in 1) control condition before addition of neuromuscular blocking agent, 2) the force response to stimulation after 90 minutes incubation with Tubocurarine. […] The traces presented in FIG. 12A (1, 2, 3), correspond to the dotted lines in FIG. 12B, respectively.
Recovery of force is quantified as the percentage of the force prior to tubocurarine that is recovered by the compound.
The current invention relates to compounds that inhibit CIC-1 ion channels and increase muscle excitability and thereby improve muscle function in clinical conditions where muscle activation is failing. Such conditions result in loss of contractile function of skeletal muscle, weakness and excessive fatigue. In this series of experiments the compounds were tested for their ability to restore contractile function of isolated rat muscle when the neuromuscular transmission had been compromised akin to neuromuscular disorders.
Experimentally, soleus muscles from 4-5 wk old rats were isolated with the motor nerve remaining attached. The nerve-muscle preparations were mounted in experimental setups that enabled electrical stimulation of the motor nerve. Stimulation of the motor nerve led to activation of the muscle fibres and ensuing force production that was recorded.
After mounting the nerve-muscle preparation in the experimental setup, the contractile function of the muscle was initially assessed under the control conditions (FIG. 2A). […] The experimental condition mimics the failing neuromuscular transmission in a range of neuromuscular disorders. After addition of tubocurarine the contractile force declined over the next 90 mins to 10-50% of the control force. 50 μM of the test compound was then added and the contractile force recovered despite the continued presence of tubocurarine. To quantify the ability of the compound to restore force the percentage of the initial force that was restored was determined after 40 mins of compound exposure (FIG. 2B) and the point increase is reported in Table 8.

[2] = biological target: T1, CIC-1 channels (Rattus norvegicus, UniProt P35524); assay: Electrophysiological measurement of compound inhibition of CIC-1 (Gm) in rat soleus muscle fibres: EC50 (Table 7)
T1 sequence (P35524 1-994): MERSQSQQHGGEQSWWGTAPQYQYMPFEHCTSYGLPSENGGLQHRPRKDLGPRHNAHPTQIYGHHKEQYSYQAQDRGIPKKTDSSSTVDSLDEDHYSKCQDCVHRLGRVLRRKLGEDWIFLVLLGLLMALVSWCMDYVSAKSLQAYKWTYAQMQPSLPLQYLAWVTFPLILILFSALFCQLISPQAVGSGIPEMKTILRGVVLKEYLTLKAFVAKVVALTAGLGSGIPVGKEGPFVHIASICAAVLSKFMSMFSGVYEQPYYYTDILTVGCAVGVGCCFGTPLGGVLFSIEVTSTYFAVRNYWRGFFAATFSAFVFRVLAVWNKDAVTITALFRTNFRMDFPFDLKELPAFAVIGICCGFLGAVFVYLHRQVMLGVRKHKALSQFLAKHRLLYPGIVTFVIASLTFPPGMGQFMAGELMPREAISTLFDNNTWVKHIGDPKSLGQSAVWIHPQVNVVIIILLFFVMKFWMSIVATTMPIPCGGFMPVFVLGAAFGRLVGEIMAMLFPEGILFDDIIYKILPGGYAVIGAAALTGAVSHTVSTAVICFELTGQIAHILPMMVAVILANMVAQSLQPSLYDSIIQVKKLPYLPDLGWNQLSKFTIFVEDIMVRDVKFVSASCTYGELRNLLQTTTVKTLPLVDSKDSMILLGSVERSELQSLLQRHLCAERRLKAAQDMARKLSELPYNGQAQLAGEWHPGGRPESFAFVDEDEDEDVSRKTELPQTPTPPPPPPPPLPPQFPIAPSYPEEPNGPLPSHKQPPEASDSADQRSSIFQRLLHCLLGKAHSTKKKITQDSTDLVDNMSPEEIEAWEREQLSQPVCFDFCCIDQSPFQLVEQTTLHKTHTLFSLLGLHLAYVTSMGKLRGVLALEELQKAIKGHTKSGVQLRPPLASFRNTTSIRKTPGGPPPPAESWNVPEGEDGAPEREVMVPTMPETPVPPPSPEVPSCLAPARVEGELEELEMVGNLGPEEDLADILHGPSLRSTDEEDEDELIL

Compound | Point increase (%) of initial force that was restored [1] | EC50 [2]
O=C(O)[C@H](CC1CC1)Oc1ccc(Cl)cc1-c1ccno1 [Compound A-52, (2S)-2-[4-chloro-2-(1,2-oxazol-5-yl)phenoxy]-3-cyclopropylpropanoic acid] | 11% | 
O=C(O)[C@H](CF)Oc1ccc(Br)cc1-c1ccno1 [Compound A-21, (2R)-2-[4-bromo-2-(1,2-oxazol-5-yl)phenoxy]-3-fluoropropanoic acid] | 13% | 
O=C(O)[C@H](CC1CCC1)Oc1ccc(Br)cc1-c1ccon1 [Compound A-71, (2S)-2-[4-bromo-2-(1,2-oxazol-3-yl)phenoxy]-3-cyclobutylpropanoic acid] | 15% | 6.5 µM
CC[C@H](Oc1ccc(Br)cc1-c1csnn1)C(=O)O [Compound A-67, (2S)-2-[4-bromo-2-(1,2,3-thiadiazol-4-yl)phenoxy]butanoic acid] | 13% | 
O=C(O)[C@H](CF)Oc1cc(F)c(Cl)cc1-c1ccon1 [Compound A-47, (2R)-2-[4-chloro-5-fluoro-2-(1,2-oxazol-3-yl)phenoxy]-3-fluoropropanoic acid] | 19% | 7.7 µM
CC[C@H](Oc1ccc(Cl)cc1-c1ccno1)C(=O)O [Compound A-49, (2S)-2-[4-chloro-2-(1,2-oxazol-5-yl)phenoxy]butanoic acid] | 16% | 
C[C@H](Oc1ccc(Cl)cc1-c1cocn1)C(=O)O [Compound A-46, (2S)-2-[4-chloro-2-(1,3-oxazol-4-yl)phenoxy]propanoic acid] | 11% | 
O=C(O)COc1ccc(Cl)cc1-c1ccno1 [Compound A-78, 2-[4-chloro-2-(1,2-oxazol-5-yl)phenoxy]acetic acid] | 17% | 
CC[C@H](Oc1ccc(Cl)cc1-c1ccon1)C(=O)O [Compound A-35, (2S)-2-[4-chloro-2-(1,2-oxazol-3-yl)phenoxy]butanoic acid] | 28% | 10.4 µM
O=C(O)[C@H](CF)Oc1ccc(Br)cc1-c1csnn1 [Compound A-66, (2R)-2-[4-bromo-2-(1,2,3-thiadiazol-4-yl)phenoxy]-3-fluoropropanoic acid] | 13% | 
C[C@H](Oc1ccc(Br)cc1-c1cc(C2CC2)on1)C(=O)O [Compound A-11, (2S)-2-[4-bromo-2-(5-cyclopropyl-1,2-oxazol-3-yl)phenoxy]propanoic acid] | 19% | 10.3 µM
O=C(O)[C@H](CF)Oc1ccc(Cl)cc1-c1ccon1 [Compound A-39, (2R)-2-[4-chloro-2-(1,2-oxazol-3-yl)phenoxy]-3-fluoropropanoic acid] | 36% | 5.2 µM
C[C@@H](Oc1ccc(Br)cc1-c1ccno1)C(=O)O [(2R)-A-22] | −3% | > 80 µM
O=C(O)[C@H](CC1CC1)Oc1ccc(Br)cc1-c1csnn1 [Compound A-75, (2S)-2-[4-bromo-2-(1,2,3-thiadiazol-4-yl)phenoxy]-3-cyclopropylpropanoic acid] | 10% | 
O=C(O)COc1ccc(Br)cc1-c1ccno1 [Compound A-69, 2-[4-bromo-2-(1,2-oxazol-5-yl)phenoxy]acetic acid] | 15% | 7.8 µM
CC[C@H](Oc1ccc(Br)cc1-c1ccno1)C(=O)O [Compound A-1, (2S)-2-[4-bromo-2-(1,2-oxazol-5-yl)phenoxy]butanoic acid] | 18% | 12.4 µM
CC(C)[C@H](Oc1ccc(Br)cc1-c1ccon1)C(=O)O [Compound A-3, (2S)-2-[4-bromo-2-(1,2-oxazol-3-yl)phenoxy]-3-methylbutanoic acid] |  | 11.6 µM
O=C(O)COc1ccc(Br)cc1-c1csnn1 [Compound A-79, 2-[4-bromo-2-(1,2,3-thiadiazol-4-yl)phenoxy]acetic acid] | 17% | 
